Source: patent US6747027B1, “Thiol sulfonamide metalloprotease inhibitors” (Pharmacia Corporation, priority 1996, dated 2004)

Tests used:
[1] = target: T1, recombinant human MMP-13 (Homo sapiens, UniProt P45452); assay: In vitro metalloprotease inhibition, fluorogenic peptide assay (MMP-13); assay type: biochemical; conditions: recombinant human MMP-13, APMA activated; fluorogenic MCA peptide substrate 4 uM; pH 7.5, room temperature
T1 construct: made in house
Procedure, shortened: (§1)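 APMA-activated recombinant human MMP-13 (baculovirus-expressed) and MMP-1 (HT-1080-expressed) preincubated with inhibitor 10 min at room temperature in Tris/NaCl/CaCl2 buffer, pH 7.5, 1% DMSO final. MCA-PLGL-Dpa-AR-NH2 substrate at 4 uM final; cleavage read as fluorescence (ex 328/em 415 nm). IC50 from fluorescence reduction versus inhibitor concentration.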

[2] = target: T2, recombinant human MMP-1 (Homo sapiens, UniProt P03956); assay: In vitro metalloprotease inhibition, fluorogenic peptide assay (MMP-1); assay type: biochemical; conditions: recombinant human MMP-1, APMA activated; fluorogenic MCA peptide substrate 4 uM; pH 7.5, room temperature
T2 construct: made in house; host or cells: transfected HT-1080 cells (provided by Dr. Howard Welgus, Washington University)
T2 sequence (P03956 100-469): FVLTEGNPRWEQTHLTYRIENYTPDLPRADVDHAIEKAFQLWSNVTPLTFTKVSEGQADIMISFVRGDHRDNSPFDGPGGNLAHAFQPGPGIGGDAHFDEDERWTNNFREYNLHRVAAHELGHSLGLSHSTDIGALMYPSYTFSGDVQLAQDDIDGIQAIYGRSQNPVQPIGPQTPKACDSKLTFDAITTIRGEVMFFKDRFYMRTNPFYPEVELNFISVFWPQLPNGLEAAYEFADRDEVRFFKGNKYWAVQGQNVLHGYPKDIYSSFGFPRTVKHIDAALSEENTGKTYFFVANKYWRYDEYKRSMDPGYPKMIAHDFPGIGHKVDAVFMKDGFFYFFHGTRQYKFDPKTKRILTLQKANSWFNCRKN
Procedure, shortened: as §1

[3] = tested on: angiogenesis in the cornea of a mouse; assay: In vivo angiogenesis assay (corneal micropocket assay, bFGF pellet); conditions: C57Bl/6 female mouse, 50 mg/kg bid, po, scored at day five
Protocol: The study of angiogenesis depends on a reliable and reproducible model for the stimulation and inhibition of a neovascular response. The corneal micropocket assay provides such a model of angiogenesis in the cornea of a mouse. See, A Model of Angiogenesis in the Mouse Cornea; Kenyon, B M, et al., Investigative Ophthalmology & Visual Science, July 1996, Vol. 37, No. 8.
In this assay, uniformly sized Hydron™ pellets containing bFGF and sucralfate were prepared and surgically implanted into the stroma mouse cornea adjacent to the temporal limbus. […]
Mice were dosed on a daily basis for the duration of the assay. […] At day five, the degree of angiogenic inhibition was scored by viewing the neovascular progression with a slit lamp microscope.
The mice were anesthetized and the studied eye was once again proptosed. The maximum vessel length of neovascularization, extending from the limbal vascular plexus toward the pellet was measured. In addition, the contiguous circumferential zone of neovascularization was measured as clock hours, where 30 degrees of arc equals 1 clock hour. The area of angiogenesis was calculated as [formula]
where the vessel length is measured in millimeters.
The studied mice were thereafter compared to control mice and the difference in the area of neovascularization was recorded.

- IC50 [1]: 1.1 nM
- IC50 [2]: > 10000 nM
Compound: NC(=O)[C@H](CS)N(CCN1CCOCC1)S(=O)(=O)c1ccc(NC(=O)c2ccccc2)cc1 [Example 218, N-(4-benzoylamino)phenylsulfonyl-N-(4-(morpholino-ethyl))-L-cysteine amide]
- inhibition of area of neovascularization versus control mice [3]: 37%
